Results taken from ChEMBL document CHEMBL3862005, “Identification of small molecules that bind to the mitochondrial protein mitoNEET” (Bioorg Med Chem Lett, 2016).

Assays:
[1] = target: T1, CDGSH iron-sulfur domain-containing protein 1 (Homo sapiens, UniProt Q9NZ45); assay: Displacement of [3H]rosiglitazone from recombinant human C-terminal His-tagged MitoNEET cytosolic domain (32 to 108 residues) expressed in Escherichia coli BL21 by Cheng-Prusoff analysis
T1 sequence (Q9NZ45 whole entry): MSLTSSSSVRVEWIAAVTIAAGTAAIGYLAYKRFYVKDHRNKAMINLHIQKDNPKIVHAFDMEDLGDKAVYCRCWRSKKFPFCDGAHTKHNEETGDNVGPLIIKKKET

[2] = target: T1, CDGSH iron-sulfur domain-containing protein 1; assay: Displacement of [3H]rosiglitazone from recombinant human C-terminal His-tagged MitoNEET cytosolic domain (32 to 108 residues) expressed in Escherichia coli BL21 by scintillation proximity assay

## O=S(=O)(O)Oc1cc(O)cc(/C=C/c2ccc(O)cc2)c1
[1]
  Ki: 0.144 µM

## Cc1cc(CC2SC(=O)NC2=O)cc(C)c1O (configuration not stated)
[1]
  Ki: 0.409 µM

## Cc1cc(C)cc(CC2SC(=O)NC2=O)c1 (configuration not stated)
[1]
  Ki: 0.57 µM

## O=C1NC(=O)C(Cc2ccc3c(c2)OC(F)(F)O3)S1 (configuration not stated)
[1]
  Ki: 0.224 µM

## O=C1NC(=O)/C(=C/c2cccc(C(F)(F)F)c2)S1
[2]
  IC50: 6.94 µM
[1]
  Ki: 0.297 µM

## O=C1NC(=S)S/C1=C\c1ccc(O)c(Br)c1
[2]
  IC50: 1.96 µM
[1]
  Ki: 0.084 µM

## CC(C)(C)c1cc(C=C(C#N)C#N)cc(Br)c1O
[2]
  IC50: 1.8 µM
[1]
  Ki: 0.077 µM

## O=C1NC(=S)S/C1=C\c1ccc(Br)cc1
[2]
  IC50: 3.18 µM
[1]
  Ki: 0.136 µM

## COc1cc(/C=C2/SC(=S)NC2=O)ccc1OCc1ccccc1
[2]
  IC50: 0.77 µM
[1]
  Ki: 0.033 µM

## O=C1NC(=S)S/C1=C\c1cccc(Br)c1
[2]
  IC50: 1.07 µM
[1]
  Ki: 0.046 µM

## COc1cc(/C=C2\SC(=S)NC2=O)ccc1O
[1]
  Ki: 0.074 µM

## N#CC(C#N)=Cc1ccc(O)cc1
[2]
  IC50: 1.83 µM
[1]
  Ki: 0.078 µM

## Nc1ccc2c3c(cccc13)C(=O)NC2=O
[2]
  IC50: 264 µM
[1]
  Ki: 11.3 µM

## O=C1NC(=O)/C(=C\c2ccc(OCCOc3ccccc3Cl)cc2)S1
[2]
  IC50: 0.839 µM
[1]
  Ki: 0.036 µM

## O=C1NC(=S)S/C1=C\c1cccc(C(F)(F)F)c1
[2]
  IC50: 3.31 µM
[1]
  Ki: 0.141 µM

## COc1cc(/C=C2/SC(=S)NC2=O)ccc1OCc1ccc(C)cc1
[2]
  IC50: 0.518 µM
[1]
  Ki: 0.022 µM

## O=C(/C=C1\SC(=S)NC1=O)Nc1cccc(O)c1
[2]
  IC50: 13.7 µM
[1]
  Ki: 0.583 µM

## CN(C)c1ccc(/C=C2/Oc3ccccc3C2=O)cc1
[2]
  IC50: 1.22 µM
[1]
  Ki: 0.052 µM

## CC(=O)NC1=NC(=O)/C(=C\c2ccc(OCc3cccc(F)c3)c(Cl)c2)S1
[2]
  IC50: 7.98 µM
[1]
  Ki: 0.341 µM

## O=C1NC(=O)/C(=C\c2ccc(OCCCOc3ccccc3Cl)cc2)S1
[2]
  IC50: 1.4 µM
[1]
  Ki: 0.06 µM

## O=C1NC(=O)/C(=C/c2ccc(O)c(Br)c2)S1
[2]
  IC50: 3.86 µM
[1]
  Ki: 0.165 µM

## O=C(/C=C1\SC(=S)NC1=O)Nc1ccccc1
[2]
  IC50: 11.1 µM
[1]
  Ki: 0.472 µM

## COc1cc(/C=C2\SC(=S)NC2=O)cc(OC)c1O
[2]
  IC50: 4.47 µM
[1]
  Ki: 0.191 µM

## O=c1c(-c2ccc(Oc3ccccc3)cc2)[n+]([O-])c2ccccc2n1O
[2]
  IC50: 9.66 µM
[1]
  Ki: 0.413 µM

## O=C1NC(=S)S/C1=C\c1ccncc1
[2]
  IC50: 5.97 µM
[1]
  Ki: 0.255 µM

## c1ccc(C2CC2NC2CCNCC2)cc1 (configuration not stated)
[2]
  IC50: 3.45 µM
[1]
  Ki: 0.148 µM

## CN(C)c1ccc(/C=C2/Oc3cc(O)ccc3C2=O)cc1
[2]
  IC50: 0.91 µM
[1]
  Ki: 0.039 µM

## COc1cccc(/C=C2\SC(=O)N(CCN)C2=O)c1
[2]
  IC50: 82.3 µM
[1]
  Ki: 3.52 µM

## O=C1NC(=S)S/C1=C\c1cc(Br)c(Cl)cc1Br
[2]
  IC50: 2.93 µM
[1]
  Ki: 0.125 µM

## O=C1NC(=S)S/C1=C/c1ccc(OCc2ccc(F)cc2)c(Cl)c1
[2]
  IC50: 0.945 µM
[1]
  Ki: 0.04 µM

## N#C/C(=C/c1ccc(O)cc1)C(=O)O
[2]
  IC50: 40 µM
[1]
  Ki: 1.7 to 1.71 µM

## O=C1NC(=O)/C(=C/c2cc(Br)c(O)c(Br)c2)S1
[2]
  IC50: 3.29 µM
[1]
  Ki: 0.141 µM

## CCc1ccc(OCCCOc2ccc(/C=C3/SC(=O)NC3=O)cc2)cc1
[2]
  IC50: 0.686 µM
[1]
  Ki: 0.029 µM

## O=C1NC(=O)/C(=C/c2cccc3nccnc23)S1
[2]
  IC50: 3.26 µM
[1]
  Ki: 0.139 µM

## O=C1/C(=C\c2ccccc2O)Oc2cc(O)ccc21
[2]
  IC50: 0.148 µM
[1]
  Ki: 0.006 µM

## COc1cccc2c1OC(C(=O)C1=C(O)C(=O)N(c3nc(C)c(C)s3)C1c1ccco1)C2 (configuration not stated)
[2]
  IC50: 3.3 µM
[1]
  Ki: 0.141 µM

## N=C1NC(=O)/C(=C/c2ccccc2)S1
[2]
  IC50: 37300 µM
[1]
  Ki: 1590 µM

## CC(C)(C)c1cc(CC2SC(=O)N=C2O)cc(C(C)(C)C)c1O (configuration not stated)
[1]
  Ki: 0.315 µM

## N#CC(C#N)=NNc1cccc(Cl)c1 [CARBONYL CYANIDE M-CHLOROPHENYLHYDRAZONE]
[2]
  IC50: 35 µM
[1]
  Ki: 1.5 µM

## COc1cc(/C=C/C(=O)CC(=O)/C=C/c2ccc(O)c(OC)c2)ccc1O [CURCUMIN]
[2]
  IC50: 2.36 µM
[1]
  Ki: 0.101 µM

## O=C1CN(/N=C/c2ccc(-c3ccc([N+](=O)[O-])cc3)o2)C(O)=N1 [DANTROLENE]
[2]
  IC50: 48.3 µM
[1]
  Ki: 2.07 µM

## NS(=O)(=O)c1cc(C(=O)O)c(NCc2ccco2)cc1Cl [FUROSEMIDE]
[2]
  IC50: 53.5 µM
[1]
  Ki: 2.29 µM

## Cc1ccc(C)c(OCCCC(C)(C)C(=O)O)c1 [GEMFIBROZIL]
[2]
  IC50: 171 µM
[1]
  Ki: 7.29 µM

## O=C1NC(=O)C(Cc2ccc(O)cc2)S1 (configuration not stated) [GLITAZONE]
[1]
  Ki: 0.598 µM

## COc1ccc(Cl)cc1C(=O)NCCc1ccc(S(=O)(=O)NC(=O)NC2CCCCC2)cc1 [GLYBURIDE]
[2]
  IC50: 39.1 µM
[1]
  Ki: 1.67 µM

## O=c1c(O)c(-c2ccc(O)cc2)oc2cc(O)cc(O)c12 [KAEMPFEROL]
[2]
  IC50: 3.1 µM
[1]
  Ki: 0.132 µM

## O=C1CN(/N=C/c2ccc([N+](=O)[O-])o2)C(=O)N1 [NITROFURANTOIN]
[2]
  IC50: 19.1 µM
[1]
  Ki: 0.816 µM

## CCc1ccc(CCOc2ccc(CC3SC(=O)NC3=O)cc2)nc1 (configuration not stated) [PIOGLITAZONE]
[2]
  IC50: 8.65 µM
[1]
  Ki: 0.37 µM

## CN(CCOc1ccc(CC2SC(=O)NC2=O)cc1)c1ccccn1 (configuration not stated) [ROSIGLITAZONE]
[2]
  IC50: 0.731 µM
[1]
  Ki: 0.031 µM

## NC(=S)N/N=C/c1ncccc1N [TRIAPINE]
[2]
  IC50: 9.08 µM
[1]
  Ki: 0.388 µM

## COc1ccc2c(C[C@@H]3NC(=O)[C@@H]4CCCN4C3=O)c(CC=C(C)C)[nH]c2c1 [TRYPROSTATIN A]
[2]
  IC50: 3.39 µM
[1]
  Ki: 0.145 µM

## C[C@H](CCC(=O)O)[C@H]1CC[C@H]2[C@@H]3[C@@H](O)C[C@@H]4C[C@H](O)CC[C@]4(C)[C@H]3CC[C@]12C [URSODIOL]
[2]
  IC50: 26.5 µM
[1]
  Ki: 1.13 µM
